Results: article PMC10607100, “Anticancer and Antiphytopathogenic Activity of Fluorinated Isatins and Their Water-Soluble Hydrazone Derivatives” (International Journal of Molecular Sciences, 2023)
Like-named read-outs stand apart in the source and are kept apart here.

How the values were obtained:
[1] = test system: Micrococcus luteus B-109; assay: Agar-well diffusion, bactericidal activity; format: cell-based; conditions: Micrococcus luteus
Outline: (§1)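 Bacteria spread on agar (BP medium; GYCa for X. campestris; pH 7.2–7.4) with 6-mm wells, each receiving 150 μL compound solution. Cultures grown at 28 °C; growth-inhibition zone width measured after 36–40 h.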

[2] = test system: Pectobacterium atrosepticum 1043; assay: Agar-well diffusion, bactericidal activity; format: cell-based; conditions: Pectobacterium atrosepticum, 1043; 2 mM/L; average of 3 experiments; read-out: width of the inhibition zone (mm), P. atrosepticum
Outline: as §1

[3] = test system: Pectobacterium carotovorum subsp. carotovorum MI; assay: Agar-well diffusion, bactericidal activity; format: cell-based; conditions: Pectobacterium carotovorum, 2 mM/L
Outline: as §1

[4] = test system: Pseudomonas fluorescens EL-2.1; assay: Agar-well diffusion, bactericidal activity; format: cell-based; conditions: Pseudomonas fluorescens, EL2.1, 2 mM/L
Outline: as §1

[5] = test system: Xanthomonas campestris B-610; assay: Agar-well diffusion, bactericidal activity; format: cell-based; conditions: Xanthomonas campestris
Outline: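 Agar-well diffusion on GYCa agar (pH 7.2–7.4) seeded with bacterial suspension; 150 μL compound solution placed in 6-mm wells. Inhibition zone width measured after 36–40 h incubation.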

[6] = test system: five representative phytopathogens; assay: Agar-well diffusion, bactericidal activity over the panel of phytopathogens; format: cell-based; conditions: 36 h, 2 mM solutions; dependent on the test system used; read-out: inhibition zone width (mm), range over the test systems
Outline: as §1

[7] = test system: Fusarium oxysporum IBPPM 543; assay: Mycelial radial growth inhibition; format: cell-based; conditions: for inhibition of growth at 1 µM: 1 nmol/mL; for inhibition of growth at 1 µM / inhibition of growth at 3 µM / inhibition of growth at 20 µM / inhibition of growth at 30 µM: read-out: Inhibition value, I (%); for inhibition of growth at 3 µM: 3 nmol/mL; for inhibition of growth at 20 µM: 20 nmol/mL; for inhibition of growth at 30 µM: 30 nmol/mL
Outline: (§2)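 Compounds mixed into molten GPY agar at various concentrations; centre inoculated with a 5-mm mycelial plug from 10-day cultures and incubated at 27 °C. Colony diameter compared with untreated control until control plate was covered (usually 12 days); ≥4 replicates in two experiments.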

[8] = test system: Phytophthora cactorum VKM F-985; assay: Mycelial radial growth inhibition; format: cell-based; conditions: for inhibition of growth at 1 µM: 1 nmol/mL; for inhibition of growth at 1 µM / inhibition of growth at 3 µM / inhibition of growth at 7 µM / inhibition of growth / inhibition of growth at 40 µM: read-out: Inhibition value, I (%); for inhibition of growth at 3 µM: 3 nmol/mL; for inhibition of growth at 7 µM: 7 nmol/mL; for inhibition of growth: 27 nmol/mL; for inhibition of growth at 40 µM: 40 nmol/mL
Outline: as §2

[9] = Table S3, read-out: Inhibition zone width (mm), not less
[10] = Fusarium oxysporum, IBPPM543, 72 h, age of the fungus 3 days
[11] = Fusarium oxysporum, IBPPM543, 120 h, age of the fungus 5 days
[12] = Fusarium oxysporum, IBPPM543, 168 h, age of the fungus 7 days
[13] = Fusarium oxysporum, IBPPM543, 216 h, age of the fungus 9 days
[14] = Phytophthora cactorum, 72 h, age of the fungus 3 days
[15] = Phytophthora cactorum, 120 h, age of the fungus 5 days
[16] = Phytophthora cactorum, 168 h, age of the fungus 7 days
[17] = Phytophthora cactorum, 216 h, age of the fungus 9 days

With `Cc1ccc2c(c1)C(=NNC(=O)C[n+]1ccccc1)C(=O)N2Cc1cccc(C(F)(F)F)c1.[Cl-]` [Compound 5e, 1-(2-(2-(5-Methyl-2-oxo-1-(3-(trifluoromethyl)benzyl)indolin-3-ylidene)hydrazinyl)-2-oxoethyl)pyridin-1-ium chloride] the zone of inhibition at 2000 µM ([1]; B109, 2 mM/L, average of 3 experiments, read-out: width of the inhibition zone (mm), M. luteus) was 6 mm, the zone of inhibition at 2000 µM ([1]; B109, Table S3, 2 mM/L, read-out: Inhibition zone width (mm), not less) was ≥ 6 mm and the zone of inhibition at 2000 µM [2] was 4 mm. For the same compound, the zone of inhibition at 2000 µM ([3]; average of 3 experiments, read-out: width of the inhibition zone (mm), P. carotovorum subsp. carotovorum) was 5 mm, the zone of inhibition at 2000 µM [3, 9] was ≥ 5 mm and the zone of inhibition at 2000 µM ([4]; average of 3 experiments, read-out: width of the inhibition zone (mm), Ps. fluorescens) was 7 mm. For the same compound, the zone of inhibition at 2000 µM [4, 9] was ≥ 7 mm, the zone of inhibition at 2000 µM ([5]; B610, 2 mM/L, average of 3 experiments, read-out: width of the inhibition zone (mm), X. campestris) was 5 mm and the zone of inhibition at 2000 µM ([5]; B610, Table S3, 2 mM/L, read-out: Inhibition zone width (mm), not less) was ≥ 5 mm. The zone of inhibition at 2000 µM [6] was 4 to 7 mm, the inhibition of growth at 1 µM [7, 10] was 33% and the inhibition of growth at 3 µM [7, 10] was 66%. It also gave an inhibition of growth at 20 µM [7, 10] of 69%, an inhibition of growth at 30 µM [7, 10] of 75% and an EC50 ([7]; Fusarium oxysporum, IBPPM543, 120 h, day 5, read-out: EC50, µg/mL at Day 5, F. oxysporum) of 0.6 µg/mL. The inhibition of growth at 1 µM [7, 11] was 48%, the inhibition of growth at 3 µM [7, 11] was 67% and the inhibition of growth at 20 µM [7, 11] was 72%. It also gave an inhibition of growth at 30 µM [7, 11] of 76%, an inhibition of growth at 1 µM [7, 12] of 33% and an inhibition of growth at 3 µM [7, 12] of 65%. For the same compound, the inhibition of growth at 20 µM [7, 12] was 69%, the inhibition of growth at 30 µM [7, 12] was 72% and the inhibition of growth at 1 µM [7, 13] was 18%. For the same compound, the inhibition of growth at 3 µM [7, 13] was 64%, the inhibition of growth at 20 µM [7, 13] was 67% and the inhibition of growth at 30 µM [7, 13] was 71%. For the same compound, the IC50 ([7]; Fusarium oxysporum, IBPPM543, read-out: IC50, antifungal activity against F. oxysporum) was 0.6 µg/mL, the “fungicidal action stronger than N-cetylpyridinium chloride” value ([7]; same culture age (5 days)) was 235 times and the “inhibition of Fusarium growth greater than fludioxonil” value ([7]; same culture age (5 days)) was 139 times. For the same compound, the “antagonistic effect superior to that of N-cetylpyridinium chloride” value ([8]; 5 days of growth) was 1.3 times, the “antagonistic effect superior to that of fludioxonil” value ([8]; 5 days of growth) was 1.1 times and the inhibition of growth at 1 µM [8, 14] was 20%. For the same compound, the inhibition of growth at 3 µM [8, 14] was 23%, the inhibition of growth at 7 µM [8, 14] was 25% and the inhibition of growth [8, 14] was 28%. The inhibition of growth at 40 µM [8, 14] was 35%, the EC50 ([8]; Phytophthora cactorum, 120 h, day 5, read-out: EC50, µg/mL at Day 5, P. cactorum) was 27.4 µg/mL and the inhibition of growth at 1 µM [8, 15] was 16%. It also gave an inhibition of growth at 3 µM [8, 15] of 19%, an inhibition of growth at 7 µM [8, 15] of 30% and an inhibition of growth [8, 15] of 35%. For the same compound, the inhibition of growth at 40 µM [8, 15] was 38%, the inhibition of growth at 1 µM [8, 16] was 15% and the inhibition of growth at 3 µM [8, 16] was 17%. It also gave an inhibition of growth at 7 µM [8, 16] of 23%, an inhibition of growth [8, 16] of 26% and an inhibition of growth at 40 µM [8, 16] of 29%. The inhibition of growth at 1 µM [8, 17] was 14%, the inhibition of growth at 3 µM [8, 17] was 17% and the inhibition of growth at 7 µM [8, 17] was 19%. The inhibition of growth [8, 17] was 21%, the inhibition of growth at 40 µM [8, 17] was 26% and the melting point was 202 to 203 °C.
